System: RAW264.7
Assay: Antiinflammatory activity against IFN-gamma, TNF-alpha and IL-1-stimulated mouse RAW264.7 cells assessed as inhibition of cellular iNOS synthesis
Assay type: functional, cell-based

IC50 [µM] | SMILES
6 | C[C@H]1[C@H](C)CC[C@]2(C(=O)O)CC[C@]3(C)C(=CC[C@@H]4[C@@]5(C)C=CC(=O)C(C)(C)[C@@H]5CC[C@]43C)[C@H]12
17.6 | C[C@H]1[C@H](C)CC[C@]2(C(=O)O)CC[C@]3(C)C(=CC(=O)[C@@H]4[C@@]5(C)C=CC(=O)C(C)(C)[C@@H]5CC[C@]43C)[C@H]12
0.2 | CC1(C)CC[C@]2(C(=O)O)CC[C@]3(C)[C@H](C(=O)C=C4[C@@]5(C)C=CC(=O)C(C)(C)[C@@H]5CC[C@]43C)[C@@H]2C1

Reference: ChEMBL document CHEMBL1765043, “New synthetic triterpenoids: potent agents for prevention and treatment of tissue injury caused by inflammatory and oxidative stress” (J Nat Prod, 2011)
